Laboratory results published in publication PMC4877593, “Design and Synthesis of Potent in Vitro and in Vivo Anticancer Agents Based on 1-(3′,4′,5′-Trimethoxyphenyl)-2-Aryl-1H-Imidazole” (Scientific Reports, 2016).
Like-named read-outs stand apart in the source and are kept apart here.

Tests used:
Jurkat = test: In vitro antiproliferative activity (MTT), Jurkat; type: cell-based; conditions: Homo sapiens, tumor cell proliferation, 72 h, mean ± SE
Protocol: (§1) Human T-cell leukemia (CCRF-CEM and Jurkat) and human B-cell leukemia (SEM) cells were grown in RPMI-1640 medium (Gibco, Milano, Italy). Breast adenocarcinoma (MCF7), human cervix carcinoma (HeLa), and human colon adenocarcinoma (HT-29) cells were grown in DMEM medium (Gibco, Milano, Italy), all supplemented with 115 units/mL penicillin G (Gibco, Milano, Italy), 115 μg/mL streptomycin (Invitrogen, Milano, Italy), and 10% fetal bovine serum (Invitrogen, Milano, Italy). Stock solutions (10 mM) of the different compounds were obtained by dissolving them in dimethyl sulfoxide (DMSO). Individual wells of a 96-well tissue culture microtiter plate were inoculated with 100 μL of complete medium containing 8 × 10^3 cells. The plates were incubated at 37 °C in a humidified 5% CO2 incubator for 18 h prior to the experiments. After medium removal, 100 μL of fresh medium containing the test compound at different concentrations was added to each well in triplicate and incubated at 37 °C for 72 h. The percentage of DMSO in the medium never exceeded 0.25%. This was also the maximum DMSO concentration in all cell-based assays described below. […] Different concentrations of the test compounds were added, and viability was determined 72 h later by the MTT test. For cytotoxicity evaluations in resting PBL cultures, non-adherent cells were resuspended (5 × 10^5 cells/mL) and treated for 72 h with the test compounds, as described above.

MCF-7 = test: In vitro antiproliferative activity (MTT), MCF-7; type: cell-based; conditions: Homo sapiens, MCF7, tumor cell proliferation, 72 h, mean ± SE
Protocol: as §1

RS4;11 = test: In vitro antiproliferative activity (MTT), RS4;11; type: cell-based; conditions: Homo sapiens, tumor cell proliferation, 72 h, mean ± SE
HL-60 = test: In vitro antiproliferative activity (MTT), HL-60; type: cell-based; conditions: Homo sapiens, tumor cell proliferation, 72 h, mean ± SE
A549 = test: In vitro antiproliferative activity (MTT), A549; type: cell-based; conditions: Homo sapiens, tumor cell proliferation, 72 h, mean ± SE
Protocol: as §1

HeLa = test: In vitro antiproliferative activity (MTT), HeLa; type: cell-based; conditions: Homo sapiens, tumor cell proliferation, 72 h, mean ± SE
Protocol: as §1

HT-29 = test: In vitro antiproliferative activity (MTT), HT-29; type: cell-based; conditions: Homo sapiens, tumor cell proliferation, 72 h, mean ± SE
Protocol: as §1

[1] = tested on: panel of seven human tumor cell lines; conditions: previously published triazole; ref 16d; read-out: IC50 values in the same seven cell lines (range); cited from earlier work
bovine brain tubulin = test: Inhibition of tubulin polymerization (turbidimetry); type: biochemical
Protocol: To evaluate the effect of the compounds on tubulin assembly in vitro[22], varying concentrations of compounds were preincubated with 10 μM bovine brain tubulin in glutamate buffer at 30 °C and then cooled to 0 °C. After addition of 0.4 mM GTP (final concentration), the mixtures were transferred to 0 °C cuvettes in a recording spectrophotometer equipped with an electronic temperature controller and warmed to 30 °C. Tubulin assembly was followed turbidimetrically at 350 nm. […] The ability of the test compounds to inhibit colchicine binding to tubulin was measured as described, except that the reaction mixtures contained 1 μM tubulin, 5 μM [^3H]colchicine and 1 or 5 μM test compound.

[2] = tested on: panel of seven human tumor cell lines; test: Antiproliferative activity across the panel of seven human tumor cell lines; type: cell-based
Protocol: as §1

[3] = tubulin at 10 μM, 20 min incubation, read-out: Tubulin assembly IC50 ± S.D.
[4] = average over the seven cell lines, read-out: average IC50 values

Row | IC50 (Jurkat) [nM] | IC50 (MCF-7) [nM] | IC50 (RS4;11) [nM] | IC50 (HL-60) [nM] | IC50 (A549) [nM] | melting point [°C] | IC50 (HeLa) [nM] | IC50 (HT-29) [nM] | IC50 (bovine brain tubulin; [3]) [nM] | IC50 ([2]; range over seven cancer cell lines, read-out: IC50 values in the seven cell lines (range)) [nM] | IC50 (bovine brain tubulin; repeated beside the calculated energies, read-out: inhibition of tubulin polymerization IC50 (Table 4)) [nM] | Molecule | IC50 [1] [nM] | IC50 [2, 4] [nM]
1 | 365 ± 25 | 666 ± 231 | 715 ± 148 | 453 ± 14 | 2600 ± 422 | 176 to 178 | 263 ± 39 | 647 ± 83 | – | – | – | COc1ccc(-c2nccn2-c2cc(OC)c(OC)c(OC)c2)cc1Cl [Compound 4e, 2-(3′-Chloro-4′-methoxyphenyl)-1-(3′,4′,5′-trimethoxyphenyl)-1H-imidazole] | – | –
2 | > 10000 | > 10000 | > 10000 | > 10000 | > 10000 | 130 to 132 | > 10000 | > 10000 | – | – | – | CCOc1ccccc1-c1nccn1-c1cc(OC)c(OC)c(OC)c1 [Compound 4m, 2-(2′-Ethoxyphenyl)-1-(3′,4′,5′-trimethoxyphenyl)-1H-imidazole] | – | –
3 | 4570 ± 758 | 2090 ± 374 | 5680 ± 259 | 4800 ± 451 | 7000 ± 1150 | 130 to 132 | 1980 ± 126 | 1400 ± 200 | – | – | – | CCc1ccc(-c2nccn2-c2cc(OC)c(OC)c(OC)c2)cc1 [Compound 4b, 2-(4′-Ethylphenyl)-1-(3′,4′,5′-trimethoxyphenyl)-1H-imidazole] | – | –
4 | 12 ± 6.6 | 3.4 ± 0.38 | 8.6 ± 1.1 | 3.5 ± 0.73 | 14 ± 2.3 | 127 to 129 | 1.5 ± 0.32 | 7.5 ± 1.2 | 570 | 1.5 to 14.2 | – | CCOc1ccc(-c2nccn2-c2cc(OC)c(OC)c(OC)c2)cc1F [Compound 4n, 2-(3′-Fluoro-4′-ethoxyphenyl)-1-(3′,4′,5′-trimethoxyphenyl)-1H-imidazole] | – | 7.2
5 | 42 ± 3.9 | 1.7 ± 0.6 | 91 ± 8.9 | 63 ± 17.6 | 63 ± 18.1 | – | 2.9 ± 0.8 | 15 ± 1.3 | 1400 ± 100 | – | 1400 | CCCOc1ccc(-c2nccn2-c2cc(OC)c(OC)c(OC)c2)cc1 [Compound 4q, 1-(3′,4′,5′-Trimethoxyphenyl)-2-(4′-n-propoxyphenyl)-1H-imidazole] | – | –

Further lines, the molecule ahead of its results:

Row | Molecule | IC50 (Jurkat) [nM] | IC50 (MCF-7) [nM] | IC50 (RS4;11) [nM] | IC50 (HL-60) [nM] | IC50 (A549) [nM] | melting point [°C] | IC50 (HeLa) [nM] | IC50 (HT-29) [nM] | IC50 (bovine brain tubulin; [3]) [nM] | IC50 ([2]; range over seven cancer cell lines, read-out: IC50 values in the seven cell lines (range)) [nM] | IC50 (bovine brain tubulin; repeated beside the calculated energies, read-out: inhibition of tubulin polymerization IC50 (Table 4)) [nM] | IC50 [1] [nM] | IC50 [2, 4] [nM]
6 | COc1cc(-n2ccnc2-c2cc(C)c(OC)c(C)c2)cc(OC)c1OC [Compound 4h, 2-(4′-Methoxy-3′,5′-dimethylphenyl)-1-(3′,4′,5′-trimethoxyphenyl)-1H-imidazole] | > 10000 | > 10000 | > 10000 | 3470 ± 467 | > 10000 | 153 to 155 | 9160 ± 1590 | > 10000 | – | – | – | – | –
7 | 1-(3′,4′,5′-trimethoxyphenyl)-5-(3′-chloro-4′-ethoxyphenyl) triazole | – | – | – | – | – | – | – | – | – | – | – | 3 to 20 | –
8 | COc1ccc(-c2nccn2-c2cc(OC)c(OC)c(OC)c2)cc1OC [Compound 4i, 1-(3′,4′,5′-Trimethoxyphenyl)-2-(3′,4′-dimethoxyphenyl)-1H-imidazole] | > 10000 | > 10000 | > 10000 | 3930 ± 517 | > 10000 | – | > 10000 | > 10000 | – | – | – | – | –
9 | COc1cc(-n2ccnc2-c2ccc(OC(F)(F)F)cc2)cc(OC)c1OC [Compound 4j, 1-(3′,4′,5′-Trimethoxyphenyl)-2-(4′-(trifluoromethoxy)phenyl)-1H-imidazole] | 6630 ± 338 | > 10000 | > 10000 | > 10000 | > 10000 | 125 to 127 | > 10000 | > 10000 | – | – | – | – | –
10 | COc1ccc(/C=C\c2cc(OC)c(OC)c(OC)c2)cc1O [CA-4, Combretastatin A-4, reference compound] | 0.8 ± 0.2 | 5 ± 0.6 | […] | […] | […] | – | […] | 180 ± 30 | […] | – | – | – | 523
